Values joined by “and” are separate entries in the source; they are usually repeats but may differ in a detail not shown here. Identical values can stand only once.
Key:
[1] = target: T1, full-length NS3/4A protease (genotype 1b) (Hepatitis C virus genotype 1b, UniProt Q9WMX2); assay: biochemical; conditions: purified full-length NS3/4A, genotype 1b wild-type; read-out: IC50 Full-length NS3/4A
T1 construct: wild-type HCV NS3 (HCV polyprotein residues 1027–1657); His-tag (N); made in house
Description: All assays were done in duplicate in black 384-well plates (Matrix Technologies). […] 200 nL of 10 mM compound (50 µM final concentrations) were then added and incubated for 5 minutes. Enzyme reactions were initiated with 10 µL of substrate Ac-DE-Dap(QXL520)-EE-Abu-ψ-[COO]AS-C(5-FAMsp)-NH2 (Anaspec) (1 µM final concentration), incubated for 6 minutes, and quenched by 10 µL of 10% SDS as a stop solution. Fluorescence intensity was monitored with a POLARstar OPTIMA microplate reader (BMG LABTECH). Each plate contained a total of 32 positive and 32 negative controls.
A series of compound concentrations (0 to 200 µM final concentration at 2-fold serial dilution) in 100% DMSO were prepared in a 384-well plate. 20 µL of enzyme solution was distributed to wells, and 0.5 µL of varying concentration of compounds were added and incubated for 5 minutes. The enzyme reaction was initiated by adding 5 µL of the substrate, and its activity was continuously monitored for 6 minutes. The IC50 values were calculated by fitting with the Hill equation (1), with OriginPro 8.5 (OriginLab, Inc.) where y is percent inhibition, x is inhibitor concentration, n is the slope of the concentration–response curve (Hill slope), and Vmax is maximal inhibition from two to four independent assays. [drawing 1] (1)

full-length NS3/4A [2] = target: T2, full-length NS3/4A (Hepatitis C virus genotype 1b, UniProt Q9WMX2); assay: SPR binding assay (dissociation equilibrium constant KD); conditions: for SPR binding to NS3/4A, double referenced: double referenced with blank and unrelated reference protein
T2 construct: wild-type HCV NS3 (HCV polyprotein residues 1027–1657); His-tag (N); made in house
Description: The full-length NS3/4A enzyme was prepared in a storage buffer (50 mM HEPES, pH 7.6, 500 mM NaCl, 1 mM DTT, 0.2% Triton X-100, and 20% glycerol) and immobilized on a CM5 sensor chip using standard amine-coupling at 25°C with running buffer HBS-P (10 mM HEPES, 150 mM NaCl, 0.05% surfactant P-20, pH 7.4) using a Biacore T100 instrument. Flow channels 1 and 3 were activated by 1-ethyl-3-(3-dimethylaminopropyl) carbodiimide hydrocholoride (EDC)/N-hydroxy succinimide (NHS) mixture, and the activated surface was blocked by ethanolamine (pH 8.5) as controls. The NS3/4A enzyme was diluted in 10 mM sodium acetate (pH 5.0), and immobilized to flow channel 4 after sensor surface activation with EDC/NHS with a 7 min injection followed by ethanolamine blocking on unoccupied surface area. NS3/4A immobilization level was ∼8,500 response units (RU). An unrelated reference protein (92 kDa) was also immobilized to flow channel 2 as another control to be compared with NS3/4A (74.6 kDa). Fifteen initial hit compounds were prepared as 10 mM DMSO stock solutions. Compound solutions with a series of increasing concentrations (0–200 µM at 1.5-fold dilution) were applied to all four channels at a 10 µL/min flow rate at 25°C. Sensorgrams were analyzed using Biaevaluation software 2.0.3, and response unit difference (ΔRU) values at each concentration were measured during the equilibration phase. Data were either single referenced with a blank (enthanolamine) or double referenced with both blank and reference protein RU values. SigmaPlot 11.0 was used to fit the data to a single rectangular hyperbolic curve to determine KD values. The hyperbola function, y = ymax·x/(KD+x), was used to plot response units and corresponding concentration, where y is the response, ymax is the maximum response, and x is the compound concentration.

[3] = target: T3, full-length NS3/4A enzyme complex (Hepatitis C virus genotype 1b, UniProt Q9WMX2); assay: Reversibility of inhibition by dilution; assay type: biochemical; conditions: dilution 25-fold and 50-fold
T3 construct: wild-type HCV NS3 (HCV polyprotein residues 1027–1657); His-tag (N); made in house
Description: The reversibility of hit compounds was determined by dilution. The full-length NS3/4A enzyme complex was prepared as 20-fold (200 nM) of the assay concentration and was incubated with screened compounds at 20-fold IC50 value or slightly higher concentration for 30 minutes at room temperature in the same assay condition as the primary screen in a final volume of 100 µL. The concentration of enzyme and testing compound was optimized to yield at least 95% inhibition before dilution. The NS3/4A enzyme with the same volume of DMSO in place of each compound was also prepared as a control. NS3/4A activity was measured in the same way as the IC50 measurements. Then enzyme-inhibitor solution was diluted 25-fold and 50-fold and incubated for 30 minutes before measuring the percent recovery of the enzyme activity. All reversibility assays were done in triplicate.

full-length NS3/4A [4] = target: T2, full-length NS3/4A; assay: Type (mechanism) of enzyme inhibition, kinetic analysis; assay type: biochemical
Description: Full-length NS3/4A activity was monitored in the same way as the primary screening with varying concentration of both inhibitor compounds and substrate (0–8 µM). The concentration of compounds varied from 0 to 20 µM at 1.5-fold dilution factor.

[5] = target: T4, NS3/4A protease genotype 1a (Hepatitis C virus genotype 1a, UniProt P27958); assay: Inhibition assay with NS3/4A from genotype 1a; assay type: biochemical; conditions: IC50 NS3/4A genotype 1a
T4 construct: against the NS3/4A protease domains from three additional HCV genotypes (1a, 2a, and 4d); purchased Anaspec
Description: (§1) The inhibitory activity of the final hit compounds from HTS were tested against three other HCV genotypes (1a, 2a, and 4d), along with a control (genotype 1b) and five NS3 drug-resistant mutants. Eight full-length NS3 mutants (V36M, R155K, A156T, A156S, 156V, V36A, T54A, and R155T) were generated by mutagenesis and purified, and the three HCV NS3/4A protease genotypes were purchased from Anaspec. Unfortunately the enzyme activities of the three mutants V36A, T54A, and R155T were much less than that of the rest of the mutants and were insufficient for testing, therefore mutant studies were done with the five active mutants. Continuous kinetic assays were performed against all hit compounds in the same way as the wild-type NS3/4A. As a control, full-length NS3/4A (genotype 1b) was tested under the same conditions for direct comparison for each plate.

[6] = target: T5, NS3/4A protease genotype 2a (Hepatitis C virus genotype 2a, UniProt Q99IB8); assay: Inhibition assay with NS3/4A from genotype 2a; assay type: biochemical; conditions: IC50 Purified NS3/4A Sub-genotype 2a, genotype 2a
T5 construct: against the NS3/4A protease domains from three additional HCV genotypes (1a, 2a, and 4d); purchased Anaspec
Description: as §1

[7] = target: NS3/4A protease genotype 4d (Hepatitis C virus subtype 4d, UniProt Q1ZZ56); assay: Inhibition assay with NS3/4A from genotype 4d; assay type: biochemical
Description: as §1

[8] = target: T6, full-length NS3/4A genotype 1b mutant A156T (Hepatitis C virus genotype 1b, UniProt Q9WMX2, A1182T); assay: Inhibition assay with drug-resistant mutant A156T; assay type: biochemical; conditions: in words
T6 construct: wild-type HCV NS3 (HCV polyprotein residues 1027–1657); His-tag (N); made in house
Description: (§2) The full-length genes of wild-type HCV NS3 (HCV polyprotein residues 1027–1657) with a his-tag at the N-terminus and NS4A (residues 1658–1711) with no tag were cloned, co-expressed, and purified as described. Eight NS3 drug resistant mutants (V36M, V36A, T54A, R155K, R155T, A156T, A156S, and 156V) were generated by mutagenesis using full-length, wild-type NS3-containing recombinant plasmid (pETDuet-1/FL NS3/4A) as a template. The over-expression and purification of all mutants were performed by the same method as the wild-type with minor modifications.
as §1, with “As a control, full-length NS3/4A (genotype 1b) was tested under the same conditions for direct comparison for each plate.” left out

[9] = target: T7, full-length NS3/4A genotype 1b mutant A156S (Hepatitis C virus genotype 1b, UniProt Q9WMX2, A1182S); assay: Inhibition assay with drug-resistant mutant A156S; assay type: biochemical; conditions: in words
T7 construct: wild-type HCV NS3 (HCV polyprotein residues 1027–1657); His-tag (N); made in house
Description: as §2
as §1, with “As a control, full-length NS3/4A (genotype 1b) was tested under the same conditions for direct comparison for each plate.” left out

[10] = target: T8, full-length NS3/4A genotype 1b mutant A156V (Hepatitis C virus genotype 1b, UniProt Q9WMX2, A1182V); assay: Inhibition assay with drug-resistant mutant A156V; assay type: biochemical; conditions: genotype 1b full-length mutant
T8 construct: wild-type HCV NS3 (HCV polyprotein residues 1027–1657); His-tag (N); made in house
Description: as §2
as §1, with “As a control, full-length NS3/4A (genotype 1b) was tested under the same conditions for direct comparison for each plate.” left out

[11] = target: T9, full-length NS3/4A genotype 1b mutant R155K (Hepatitis C virus genotype 1b, UniProt Q9WMX2, R1181K); assay: Inhibition assay with drug-resistant mutant R155K; assay type: biochemical; conditions: in words
T9 construct: wild-type HCV NS3 (HCV polyprotein residues 1027–1657); His-tag (N); made in house
Description: as §2
as §1, with “As a control, full-length NS3/4A (genotype 1b) was tested under the same conditions for direct comparison for each plate.” left out

[12] = target: T10, full-length NS3/4A genotype 1b mutant V36M (Hepatitis C virus genotype 1b, UniProt Q9WMX2, V1062M); assay: Inhibition assay with drug-resistant mutant V36M; assay type: biochemical; conditions: genotype 1b full-length mutant
T10 construct: wild-type HCV NS3 (HCV polyprotein residues 1027–1657); His-tag (N); made in house
Description: as §2
as §1, with “As a control, full-length NS3/4A (genotype 1b) was tested under the same conditions for direct comparison for each plate.” left out

Trypsin = target: T11, Trypsin (Homo sapiens, UniProt P07477); assay: Inhibitor selectivity assay, trypsin (fluorometric); assay type: biochemical
T11 construct: purchased Sigma
Description: (§3) To test for selectivity, two human serine proteases, Trypsin and Chymotrypsin (Sigma), were tested with the top two hit compounds from HTS using a fluorometric assay. The fluorogenic substrates used in this study were N-benzoyl-L-Arg-7-amido-4-methylcoumarin (Sigma) and N-succinyl-Ala-Ala-Phe-7-amido-4- methylcoumarin (Sigma) for trypsin and chymotrypsin, respectively. All assays were performed in 384-well black plates (Corning) in a total volume of 24 µL of PBS (pH 7.4) buffer containing 0.01% Triton, 0.1 mg/mL BSA, and 2 mM GSH in triplicate. A series of compound concentrations (0 to 200 µM final concentration at 2-fold serial dilution) in 100% DMSO was prepared in a 384-well plate. 20 µL of trypsin (0.01 mg/mL) and chymotrypsin (0.0001 mg/mL) solutions were distributed into wells, and 0.5 µL of varying concentration of compounds were added and incubated for 10 minutes. The enzyme reaction was initiated by adding 5 µL of the substrate (50 µM final concentration), and fluorescence intensity was continuously monitored at excitation/emission wavelengths of 350 nm/460 nm for 10 minutes.

Chymotrypsin = target: T12, Chymotrypsin (Homo sapiens, UniProt P17538); assay: Inhibitor selectivity assay, chymotrypsin (fluorometric); assay type: biochemical; conditions: human chymotrypsin
T12 construct: purchased Sigma
T12 sequence (P17538 19-263): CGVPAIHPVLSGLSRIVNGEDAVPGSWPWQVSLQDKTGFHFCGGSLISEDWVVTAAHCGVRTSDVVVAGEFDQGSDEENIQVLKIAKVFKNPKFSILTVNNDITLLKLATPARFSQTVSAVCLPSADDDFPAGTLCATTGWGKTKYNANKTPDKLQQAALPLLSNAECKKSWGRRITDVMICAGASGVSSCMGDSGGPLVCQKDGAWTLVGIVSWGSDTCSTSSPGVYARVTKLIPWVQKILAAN
Description: as §3

SMILES	IC50 [1]	Kd (full-length NS3/4A [2]; SPR, 25°C, single rectangular hyperbolic fit)	SPR binding to NS3/4A, double referenced (full-length NS3/4A [2])	reversibility of inhibition [3]	Ki (full-length NS3/4A [4]; competitive model, with respect to substrate)	mechanism of inhibition (full-length NS3/4A [4]; with respect to the substrate, best fit model)	IC50 [5]	IC50 [6]	IC50 [7]	activity against mutant A156T compared with wild-type [8]	activity against mutant A156S compared with wild-type [9]	IC50 [10]	activity against mutant R155K compared with wild-type [11]	IC50 [12]	inhibition at 100 µM (Trypsin; 100 µM compound, read-out: Trypsin % Inh at 100 µM)	IC50 (Trypsin; human trypsin)	IC50 (Chymotrypsin)
CC1(C)CCc2cc(/C=C(\C#N)C(=O)c3cccc(C(F)(F)F)c3)ccc2O1 [Compound 6]	7.6 ± 0.6 µM	8.3 ± 1.9 µM	specific binding	reversible	–	–	–	–	–	–	–	–	–	–	–	–	–
CC(C)C(=O)N1CCc2ccc(NC(=O)COc3ccc(F)cc3)cc2C1 [Compound 13]	20.2 ± 2.2 µM	–	specific binding	–	19.1 µM	competitive inhibitors	1.7 µM and < 20 µM	< 20 µM	< 20 µM	decreased in activity	decreased in activity	< 20 µM	completely lost activity	< 20 µM	5.1%	> 100 µM	110 ± 32 µM

Source: PMC3793977, “High-Throughput Screening (HTS) and Hit Validation to Identify Small Molecule Inhibitors with Activity against NS3/4A proteases from Multiple Hepatitis C Virus Genotypes” (PLoS ONE, 2013)
